# What was measured:
# [1] = tested on: mdx mouse model; design: method as in PMID 21137017; conditions: i.p.; cited from earlier work
# [2] = design: method as in printed; conditions: mice; ref not given; cited from earlier work
# [3] = design: method as in PMID 15269190; conditions: mice, i.p. dosing; cited from earlier work
# [4] = tested on: D2.B10 mice; test: Treadmill run to exhaustion test in D2.B10 mice; format: in vivo, mouse (D2.B10-Dmd^mdx/J); conditions: Deflazacort, prednisone 1 mg/kg, lower doses of Givinostat
# Excerpt: (§1) For the efficacy studies, C57BL/10 J (Stock No: 000665) wild type (wt) and C57BL/10ScSn-Dmd^mdx/J (Stock No: 001801) 7–8-week-old male mice, DBA/2J wt (Stock No: 000671), and D2.B10-Dmd^mdx/J (Stock No: 013141) 6–7-week-old male mice were purchased from The Jackson Laboratories (Bar Harbor, Maine, USA). After 5 days of acclimatization in the animal facility, mice were randomized into different treatment groups based on their BW. C57BL/10J wt mice were assigned to the naive wt group (healthy mice that received no treatment, but were subjected to functional tests), whereas mdx mice were assigned to the following groups (9 mice/group; 4–5 mice/cage): naive mdx (mice that received no treatment, but were subjected to functional tests), vehicle (0.5% methylcellulose, p.o.), and Givinostat (0.1, 0.3, 1, 5, 10, 25, and 37.5 mg/kg, p.o.). DBA/2J mice were assigned to the naive wt group (healthy mice that received no treatment, but were subjected to functional tests), whereas D2.B10 mice were assigned to the following groups (12–13 mice/group; 4–5 mice/gage): vehicle (filtered tap water, p.o.), Givinostat (1, 5, 10, and 37.5 mg/kg, p.o.), prednisone 1 mg/kg, and Deflazacort 1 mg/kg (i.p.).
# (§2) In the efficacy studies, Givinostat powder (ITF2357) was suspended in 0.5% methylcellulose (Sigma-Aldrich) and administered p.o. (by gavage) at the doses of 0.1, 0.3, 1, 5, 10, 25, and 37.5 mg/kg qdx5x15weeks (administration volume per mouse: 10 mL/kg) in mdx mice (see Additional Figure 1A). Vehicle-treated mdx mice received 0.5% methylcellulose suspension. Givinostat suspension was stored at + 4 °C, and it was freshly prepared every 7 days. Probably due to the impairment of their tongue and masticatory muscles, the oral gavage procedure turned out to be difficult to perform, and chronic treatment of D2.B10 mice by this route was considered to bear a high risk of damaging the esophagus. For this reason, Givinostat was administered in the drinking water. Givinostat was dissolved in filtered tap water and was administered in drinking water (throughout 24 h) for 105 days at the dose of 1, 5, 10, and 37.5 mg/kg/day, according to a daily estimate of water consumption of 4 ml/mouse/day. Water consumption was weekly monitored throughout the entire duration of the study weighing the bottle of each cage (maximum 4 mice per cage). Prednisone and Deflazacort powder (Sigma-Aldrich) was dissolved in 2% DMSO (Sigma-Aldrich) and diluted in sterile saline on injection days. Both drugs were administered weekly (for 15 weeks) by i.p. injection at the dose of 1 mg/kg in a volume of 10 mL/kg. Givinostat and steroid treatments started on days 7 and 9 of the experimental plan, respectively (see Additional Figure 1B). All mice were monitored daily and tolerability was evaluated on the basis of BW and clinical signs.
# Run to exhaustion performance of mdx and D2.B10 mice was evaluated every 14 or 21 days, respectively, using a treadmill apparatus (Ugo Basile SRL, Italy). The exhaustion protocol consisted in an initially horizontal running at 5 m/min for 5 min after which the speed was increased 1 m/min every minute until exhaustion (the procedure was compliant with the standard operating procedures of TREAT–NMD Neuromuscular Network). […]
# After taking baseline readings for behavioral assays (FNmax and distance run by the animals), mice were re-randomized based on these two parameters, also considering the previous randomization performed on their BW. […]
# [5] = tested on: D2.B10 mice; test: Muscle fibrosis by Sirius Red staining in D2.B10 mice; format: in vivo, mouse (D2.B10-Dmd^mdx/J)
# Excerpt: (§3) Tibialis anterior (TA), gastrocnemius (GAS), DIA, and heart were collected from mice maintained under isoflurane anesthesia and sacrificed by cervical dislocation. These muscles were collected from C57BL/10J wt and mdx (5 mice/group) at the end of treatments and from DBA/2J wt and D2.B10 mice (5 mice/group) at two different time points to be examined by a pathologist (for more details see Additional Table 1). Due to the results obtained by the functional tests, muscles from only some treatment groups were analyzed in both DMD models (see Additional Table 1). All the collected muscles were fixed in 10% buffered formalin solution (Bio-optica, Milan, Italy) at + 4 °C for at least 48 h. After fixation, muscular samples were transversely trimmed, caged, and paraffin embedded overnight with an Automated Vacuum Tissue Processor Floor (ETP, Histo-Line Laboratories) and included in paraffin blocks. Serial transverse cross-sections (4 μm thick) were cut with a microtome (Leica RM 2255), collected onto uncoated glass slides, and stained using a standard protocol for hematoxylin and eosin (Mayer hematoxylin & Aqueous G Eosin 1%, Bio-Optica) and Sirius Red staining (Direct Red 80, Sigma-Aldrich). For the image analysis and quantitation, hematoxylin and eosin- and Sirius Red-stained slides were examined with an Olympus BX51 light microscope. From each sample, 1 to 3 random microphotographs at the magnification of × 4 and × 10 (TA, GAS and heart) or × 20 (DIA) were collected using Image-Pro Plus system. The digital images were processed by a pathologist using ImageJ software (U.S. National Institutes of Health, Bethesda, MD, USA). To quantify CSA and centralized nuclei (%) on hematoxylin and eosin-stained sections, one hundred myofibers were manually measured for each muscle/mouse using a tablet pen (Wacom Intruos) and analyzed by the ImageJ software after a linear calibration of 150 μm. The fibrotic area, corresponding to the area stained in red, was compared to the total area of the tissue section, and the results were expressed as percentage fibrosis. The % of fibrosis of muscles in the different treatment groups was expressed by averaging the three values obtained from each muscle.
# [6] = tested on: D2.B10 mice; test: Grip strength test (FNmax) in D2.B10 mice; format: in vivo, mouse (D2.B10-Dmd^mdx/J)
# Excerpt: as §1, §2
# (§4) In both efficacy studies, the effectiveness of treatments was evaluated every week by measuring the forelimb strength by a grip strength meter (Ugo Basile SRL, Italy). BW of mdx (see Additional Figure 2) and D2.B10 mice (see Additional Figure 3) was also measured in order to normalize the absolute grip strength of each mouse with respect to its BW. The protocol provides 5 measurements for each mouse (the procedure was compliant with the standard operating procedures of TREAT–NMD Neuromuscular Network). The highest recorded value of maximal normalized strength (FNmax) obtained for each mouse at all the time points (from T0 to T15) was used for further analysis.
# After taking baseline readings for behavioral assays (FNmax and distance run by the animals), mice were re-randomized based on these two parameters, also considering the previous randomization performed on their BW.
# The grip strength and run to exhaustion tests were performed during the light-cycle phase, in the early hours of the morning (8:00–11:30 am). […]
# [7] = Body weight of D2.B10 mice; format: in vivo, mouse (D2.B10-Dmd^mdx/J); conditions: mouse, in vivo
# Experimental: as §2, with “Givinostat and steroid treatments started on days 7 and 9 of the experimental plan, respectively (see Additional Figure 1B).” left out
# as §4, with “The protocol provides 5 measurements for each mouse (the procedure was compliant with the standard operating procedures of TREAT–NMD Neuromuscular Network).” left out
# [8] = tested on: D2.B10 mice; test: Myofiber cross-sectional area (CSA) in D2.B10 mice; format: in vivo, mouse (D2.B10-Dmd^mdx/J); conditions: D2.B10 muscles, 1 mg/kg i.p. weekly
# Excerpt: as §3
# The deciles of the CSA of the animals treated with Givinostat at the different doses were plotted against the corresponding deciles of the vehicle-treated mice and a linear regression analysis was performed on natural [CSAtreated = b CSAcontrol + a] and log_transformed data [log(CSAtreated) = log(a) + b log(CSAcontrol)]. […] In case of untransformed data, this means that the effect of Givinostat treatment is additive and any decile of the CSAtreatment distribution may be derived from the control data summing up a constant quantity (S) to each fiber AREA of the control group (CSAtreated = CSAcontrol + S). In case of log_transformed data, the effect of Givinostat has to be considered as a multiplicative factor on any generic fiber of the muscle under evaluation, whose size, after the treatment, results K times larger in comparison to the control group value (CSAtreated […] = K × CSAcontrol, with K = 10^a). The S or K parameter values were then determined through an iterative estimation procedure, based on sum of squares (SSQ) minimization, directly comparing the CSA distribution observed in treated animals with that obtained summing up the S value or multiplying by K the CSA values of the control group.
structure (smiles),measurement,setting,value
O=C(CCCCCCC(=O)Nc1ccccc1)NO [Vorinostat],Dose of peak functional and histologic effects (bell-shaped dose-response curve),[1],1.2 mg/kg
same,Oral bioavailability,[2],very poor oral bioavailability
"CC(/C=C/C(=O)NO)=C\[C@@H](C)C(=O)c1ccc(N(C)C)cc1 [TSA, trichostatin A]",Half-life,[3],6.3 min
same,Peak plasma concentrations,[3],micromolar
CC(=O)OCC(=O)[C@@]12N=C(C)O[C@@H]1C[C@H]1[C@@H]3CCC4=CC(=O)C=C[C@]4(C)[C@H]3[C@@H](O)C[C@@]12C [Deflazacort],"Effect on distance run, significance",[4],not statistically significant
same,"Effect of steroid on fibrosis, summary",[5]; 1 mg/kg i.p. weekly,effective only in TA
same,Reduction of fibrosis in DIA,[5]; T8,no significant effect
same,Reduction of fibrosis in TA,"[5]; T8, Givinostat 37.5 mg/kg, steroids 1 mg/kg, vs vehicle",about 22%
same,Effect on fibrosis in GAS,[5]; T16,No significant effect
same,Effect of steroid on FNmax in comparison,"[6]; 1 mg/kg i.p. weekly, all the treatment period",lower and not significantly different from prednisone
same,Time interval of significant FNmax improvement,"[6]; Deflazacort 1 mg/kg i.p. weekly, Givinostat 1 mg/kg",from day 28 to day 90
same,Body weight vs vehicle-treated mice,[7],no significant differences
same,Effect of steroid on cross-sectional area and centralized nuclei,[8],unable to affect cross-sectional area or the number of centralized nuclei
